From PubChem BioAssay AID652216 (The Scripps Research Institute Molecular Screening Center, 2013)
Activity calls are given as the source filed them.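 The calls were made as follows: active = IC50 below 10 µM against protein phosphatase 1 in the dose response test; inactive = IC50 of 10 µM or more.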

target: Serine/threonine-protein phosphatase PP1-alpha catalytic subunit (Homo sapiens) (UniProt P62136); test: PP1 inhibitor potency with OMFP substrate, dose response, biochemical, fluorescence, set 4 (AID 652216); conditions: purified PP1alpha, OMFP dephosphorylation fluorescence
Sequence (P62136 whole entry, looked up): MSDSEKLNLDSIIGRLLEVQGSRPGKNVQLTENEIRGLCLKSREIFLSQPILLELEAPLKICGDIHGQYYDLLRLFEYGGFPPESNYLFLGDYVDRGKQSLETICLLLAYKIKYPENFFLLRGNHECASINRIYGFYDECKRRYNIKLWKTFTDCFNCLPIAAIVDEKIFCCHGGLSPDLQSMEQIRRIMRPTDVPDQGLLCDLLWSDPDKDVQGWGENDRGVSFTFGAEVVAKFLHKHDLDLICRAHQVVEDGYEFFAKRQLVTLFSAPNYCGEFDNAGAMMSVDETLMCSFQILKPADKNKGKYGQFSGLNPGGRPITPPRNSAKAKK

| IC50 | Compound |
| --- | --- |
| inactive | CN1CCN(C(c2cccc(F)n2)c2ccc3cccnc3c2O)CC1 (centres undefined) |
| 4.51 µM | CN1CCN(C(c2ccc(C(F)(F)F)cn2)c2ccc3cccnc3c2O)CC1 (centres undefined) |
| 8.39 µM | CN1CCN([C@@H](c2ccc(C(F)(F)F)cn2)c2ccc3cccnc3c2O)CC1 |
| 8.84 µM | CN1CCN([C@H](c2ccc(C(F)(F)F)cn2)c2ccc3cccnc3c2O)CC1 |
